Results taken from publication PMC12102032, “Chemoproteomics unveils Sofalcone targeting ribosomal proteins to inhibit protein synthesis in Staphylococcus aureus” (Molecular Biomedicine, 2025).

Legend:
[1] = target: T1, 50S ribosomal protein rplB (Staphylococcus aureus, UniProt P60430); experiment: in-gel fluorescence covalent labeling of purified recombinant protein (click chemistry), competed by Sof and IAA; format: binding
T1 construct: purified recombinant rplB protein
T1 sequence (P60430 1-277): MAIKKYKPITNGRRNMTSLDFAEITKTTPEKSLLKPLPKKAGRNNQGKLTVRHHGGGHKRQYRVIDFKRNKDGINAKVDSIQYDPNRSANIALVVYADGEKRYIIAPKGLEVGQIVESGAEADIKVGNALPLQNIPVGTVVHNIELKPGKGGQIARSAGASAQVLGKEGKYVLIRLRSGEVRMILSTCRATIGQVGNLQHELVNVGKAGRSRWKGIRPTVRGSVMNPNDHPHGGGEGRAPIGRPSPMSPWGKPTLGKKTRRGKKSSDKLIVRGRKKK

[2] = target: T2, 50S ribosomal protein rplB (Staphylococcus aureus, UniProt P60430); experiment: microscale thermophoresis; also thermal shift of pure protein and competition with Sof-P labeling; format: binding
T2 construct: purified recombinant S. aureus rplB protein (His-Tag labeled)

| Structure (SMILES) | in-gel fluorescence covalent labeling of purified recombinant protein (click che) [1] | Kd [2] |
| --- | --- | --- |
| C#CCNC(=O)COc1cc(OCC=C(C)C)ccc1C(=O)/C=C/c1ccc(OCC=C(C)C)cc1 [Sof-P] | Sof-P labeling of recombinant rplB was concentration-dependent and was effectively competed by excess Sof or iodoacetamide (IAA) | – |
| CC(C)=CCOc1ccc(/C=C/C(=O)c2ccc(OCC=C(C)C)cc2OCC(=O)O)cc1 [Sof, 2′-carboxymethoxy-4,4′-bis(3-methyl-2-butenyloxy) chalcone] | – | 1.27 µM |
